pIC50: −log10 of the molar value.
What follows are compounds tested against T1, receptor interacting protein kinase 1 (GST-hRIPK1 (8-327)) (Homo sapiens, UniProt Q13546) (assay: Fluorescent Polarization Binding (FP Binding) assay). Details: 10 nM GST-hRIPK1 (8-327), 5 nM fluorescent-labeled ligand, 30 min at RT.
T1 construct: GST-hRIPK1 (8-327) enzyme was generated by Proteros GmbH by Baculovirus expression system
T1 sequence (Q13546 8-327): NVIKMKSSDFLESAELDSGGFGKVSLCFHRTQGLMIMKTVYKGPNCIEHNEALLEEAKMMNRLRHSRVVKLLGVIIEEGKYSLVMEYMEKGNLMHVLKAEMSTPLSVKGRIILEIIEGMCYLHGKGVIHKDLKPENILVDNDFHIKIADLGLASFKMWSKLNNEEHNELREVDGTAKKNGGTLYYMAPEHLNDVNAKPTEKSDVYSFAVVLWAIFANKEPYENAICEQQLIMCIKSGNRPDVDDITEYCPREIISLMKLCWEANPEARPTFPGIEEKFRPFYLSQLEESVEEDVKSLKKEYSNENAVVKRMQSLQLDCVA
Procedure: Fluorescent Polarization Binding (FP Binding) assay (Berger S. B. et al. (2015) Cell Death Discovery, 1: 15009; Maki J. L. et al. (2012) Anal Biochem., 427(2): 164-174) was performed in polystyrene low volume 384-well black plate, at Room Temperature (RT) in a final volume of 10.1 μl/well using 10 nM of GST-hRIPK1 (8-327) enzyme and 5 nM of fluorescent-labeled ligand (14-(2-{[3-({2-{[4-(cyanomethyl)phenyl]amino}-6-[(5-cyclopropyl-1H-pyrazol-3-yl)amino]-4-pyrimidinyl}amino) propyl]amino}-2-oxoethyl)-16,16,18,18-tetramethyl-6,7,7a,8a,9,10,16,18-octahydrobenzo[2″3″]indolizino[8″, 0.7″:5′,6′]pyrano[3′,2′:3,4]pyrido[1,2-a]indol-5-ium-2-sulfonate.
Test compounds were serially diluted in DMSO at 100 fold final concentrations in the assay (1% DMSO final). In each well of a 384-well Plate were dispensed 0.1 μL of compound solution (or DMSO for controls) followed by 5 μL of GST-hRIPK1 (8-327) at twice the final concentrations in assay-buffer (50 mM HEPES pH 7.5, 10 mM NaCl, 50 mM MgCl2, 0.02% CHAPS, 0.5 mM DTT and 0.01% Pluronic F127). For negative control the enzyme addition was replaced by assay buffer only.
After addition of 5 μL of fluorescent-labeled ligand at twice the final concentrations in assay buffer, the plate was incubated at RT for 30 min. At the end, the binding was measured as FP value with the Envision (PerkinElmer) plate reader using filter for an excitation λ=531 nm FP and an emission λ=595 nm FP (S & P-pol).
Test compound inhibition was expressed as percent inhibition of internal assay controls. For concentration response curves, normalized data is fit and IC50 determined using XL-fit (IDBS) for Excel. IC50 were averaged to determine a mean value, for a minimum of two independent experiments.
Receptor interacting protein kinase 1 activity of exemplary compounds was determined according to the above general procedures.
Receptor interacting protein kinase 1 activity of certain compounds was determined according to the above general procedures.

Structure (SMILES)	pIC50
O=C(C1CC1(F)F)N1OCC[C@H]1c1ccc(F)cc1 (single isomer, unassigned) [Compound 236]	> 6.00
O=C(C1CC1(F)F)N1OCC[C@H]1c1ccc(F)cc1 (single isomer, unassigned) [Compound 237]	> 6.00
O=C(c1cnn2ccccc12)N1OCC[C@H]1c1ccccc1 [Compound 21, (3S)-3-phenyl-2-{pyrazolo[1,5-a]pyridine-3-carbonyl}-1,2-oxazolidine]	5.00 to 6.00
CC(C)(C)C(=O)N1OCC[C@@H]1c1cccc(F)c1F [Compound 30, 1-[(3R)-3-(2,3-Difluorophenyl)-12-oxazolidin-2-yl]-2,2-dimethylpropan-1-one]	> 6.00
CC(C)(C)C(=O)N1OCC[C@H]1c1cccc(F)c1F [Compound 31, 1-[(3S)-3-(2,3-Difluorophenyl)-1,2-oxazolidin-2-yl]-2,2-dimethylpropan-1-one]	> 6.00
O=C(N1OCC[C@H]1c1ccc(F)cc1)C1(F)CC1 [Compound 34, (3S)-2-(1-Fluorocyclopropane-carbonyl)-3-(4-fluorophenyl)-1,2-oxazolidine]	> 6.00
O=C(N1OCC[C@H]1c1ccc(F)cc1)C1(C(F)(F)F)CC1 [Compound 37, (3S)-3-(4-Fluorophenyl)-2-[1-(trifluoromethyl)cyclo-propanecarbonyl]-1,2-oxazolidine]	> 6.00
CN1CC(C)(C(=O)N2OCC[C@H]2c2ccc(F)cc2)C1 [Compound 42, (3S)-2-(1,3-Dimethylazetidine-3-carbonyl)-3-(4-fluorophenyl)-1,2-oxazolidine]	< 5.00
CC1(C(=O)N2OCC[C@H]2c2ccc(F)cc2)CNC1 [Compound 43, (3S)-3-(4-Fluorophenyl)-2-(3-methylazetidine-3-carbonyl)-1,2-oxazolidine]	< 5.00
CC(C)(C)C(=O)N1OCC[C@H]1c1ccc(Cl)cc1 [Compound 47, 1-[(3S)-3-(4-Chlorophenyl)-1,2-oxazolidin-2-yl]-2,2-dimethylpropan-1-one]	> 6.00
CC(C)(C)C(=O)N1OCC[C@@H]1c1ccc(Cl)cc1 [Compound 48, 1-[(3R)-3-(4-Chlorophenyl)-1,2-oxazolidin-2-yl]-2,2-dimethylpropan-1-one]	< 5.00
CC(C)(C)OC(=O)N1OCCC1c1ccc(Cl)cc1 (centres unmarked) [Compound 49, tert-Butyl 3-(4-chlorophenyl)-1,2-oxazolidine-2-carboxylate]	> 6.00
CC(C)(C)C(=O)N1OCC[C@H]1c1ccc(F)c(F)c1 [Compound 50, 1-[(3S)-3-(3,4-Difluorophenyl)-1,2-oxazolidin-2-yl]-2,2-dimethylpropan-1-one]	> 6.00
CC(C)(C)C(=O)N1OCC[C@@H]1c1ccc(F)c(F)c1 [Compound 51, 1-[(3R)-3-(3,4-Difluorophenyl)-1,2-oxazolidin-2-yl]-2,2-dimethylpropan-1-one]	5.00 to 6.00
O=C(N1OCC[C@H]1c1ccccc1)C1(C(F)(F)F)CC1 [Compound 54, (3S)-3-Phenyl-2-[1-(trifluoromethyl)cyclo-propanecarbonyl]-1,2-oxazolidine]	> 6.00
CC(C)(C(=O)N1OCC[C@H]1c1ccccc1)C(F)(F)F [Compound 55, 3,3,3-Trifluoro-2,2-dimethyl-1-[(3S)-3-phenyl-1,2-oxazolidin-2-yl]propan-1-one]	> 6.00
CC(C)(F)C(=O)N1OCC[C@H]1c1ccccc1 [Compound 56, 2-Fluoro-2-methyl-1-[(3S)-3-phenyl-1,2-oxazolidin-2-yl]propan-1-one]	> 6.00
CC1(C(=O)N2OCC[C@H]2c2ccccc2)CC(F)(F)C1 [Compound 57, (3S)-2-(3,3-difluoro-1-methylcyclobutane-carbonyl)-3-phenyl-1,2-oxazolidine]	> 6.00
Cn1c(C#N)ccc1C(=O)N1OCC[C@H]1c1ccc(F)cc1 [Compound 60, 5-[(3S)-3-(4-fluorophenyl)-1,2-oxazolidine-2-carbonyl]-1-methyl-1H-pyrrole-2-carbonitrile]	> 6.00
CC(C)(C)C(=O)N1OCC[C@@H]1c1cccnc1F [Compound 63, 1-[(3R)-3-(2-Fluoropyridin-3-yl)-1,2-oxazolidin-2-yl]-2,2-dimethylpropan-1-one]	5.00 to 6.00
CC(C)C(=O)N1OCC[C@@H]1c1ccc(F)cc1 [Compound 65, 1-[(3R)-3-(4-Fluorophenyl)-1,2-oxazolidin-2-yl]-2-methylpropan-1-one]	< 5.00

Results, then the compound that gave them:

pIC50	Structure (SMILES)
> 6.00	CC(CC(F)F)C(=O)N1OCC[C@H]1c1ccc(C#N)cc1 (single isomer, unassigned) [Compound 233]
< 5.00	C[C@H](O)C(=O)N1OCC[C@H]1c1ccccc1 [Compound 15, (2S)-2-Hydroxy-1-[(3S)-3-phenyl-1,2-oxazolidin-2-yl]propan-1-one]
> 6.00	O=C(N1OCC[C@H]1c1ccc(F)cc1)C1(C(F)(F)F)CCCC1 [Compound 29, (3S)-3-(4-fluorophenyl)-2-[1-(trifluoromethyl)cyclo-pentanecarbonyl]-1,2-oxazolidine]
> 6.00	O=C(N1OCC[C@H]1c1ccc(F)cc1)C12CC(C1)C2 [Compound 32, (3S)-2-{Bicyclo[1.1.1]pentane-1-carbonyl}-3-(4-fluorophenyl)-1,2-oxazolidine]
> 6.00	CC1(C(=O)N2OCC[C@H]2c2ccc(F)cc2)COC1 [Compound 33, (3S)-3-(4-Fluorophenyl)-2-(3-methyloxetane-3-carbonyl)-1,2-oxazolidine]
> 6.00	CCC1(C(=O)N2OCC[C@H]2c2ccc(F)cc2)COC1 [Compound 38, (3S)-2-(3-Ethyloxetane-3-carbonyl)-3-(4-fluorophenyl)-1,2-oxazolidine]
> 6.00	O=C(N1OCC[C@H]1c1ccc(F)cc1)C1(C(F)(F)F)CCC1 [Compound 39, (3S)-3-(4-Fluorophenyl)-2-[1-(trifluoromethyl)cyclo-butanecarbonyl]-1,2-oxazolidine]
5.00 to 6.00	CC(C)(C)OC(=O)N1CC(C)(C(=O)N2OCC[C@H]2c2ccc(F)cc2)C1 [Compound 44, tert-Butyl 3-[(3S)-3-(4-fluorophenyl)-1,2-oxazolidine-2-carbonyl]-3-methylazetidine-1-carboxylate]
5.00 to 6.00	CC(C)(C)C(=O)N1OCC[C@@H]1c1ccnc(F)c1 [Compound 45, 1-[(3R)-3-(2-Fluoropyridin-4-yl)-1,2-oxazolidin-2-yl]-2,2-dimethylpropan-1-one]
> 6.00	CC(C)(C)C(=O)N1OCC[C@H]1c1ccnc(F)c1 [Compound 46, 1-[(3S)-3-(2-Fluoropyridin-4-yl)-1,2-oxazolidin-2-yl]-2,2-dimethylpropan-1-one]
> 6.00	CC(C)(C)C(=O)N1OCCC1c1cccnc1 (centres unmarked) [Compound 58, 2,2-Dimethyl-1-[3-(pyridin-3-yl)-1,2-oxazolidin-2-yl]propan-1-one]
< 5.00	Cn1c(C#N)ccc1C(=O)N1OCC[C@@H]1c1ccc(F)cc1 [Compound 59, 5-[(3R)-3-(4-fluorophenyl)-1,2-oxazolidine-2-carbonyl]-1-methyl-1H-pyrrole-2-carbonitrile]
> 6.00	CC(C)(C)C(=O)N1OCC[C@H]1c1cccnc1F [Compound 66, 1-[(3S)-3-(2-Fluoropyridin-3-yl)-1,2-oxazolidin-2-yl]-2,2-dimethylpropan-1-one]
5.00 to 6.00	CC(C)(C)C(=O)N1OCC[C@@H]1c1c(F)cccc1F [Compound 67, 1-[(3R)-3-(2,6-Difluorophenyl)-1,2-oxazolidin-2-yl]-2,2-dimethylpropan-1-one]
> 6.00	CC(C)(C)C(=O)N1OCC[C@H]1c1c(F)cccc1F [Compound 68, 1-[(3S)-3-(2,6-Difluorophenyl)-1,2-oxazolidin-2-yl]-2,2-dimethylpropan-1-one]
5.00 to 6.00	O=C([C@H]1C[C@H](O)C1)N1OCC[C@H]1c1ccccc1 [Compound 75, (1r,3r)-3-[(3S)-3-Phenyl-1,2-oxazolidine-2-carbonyl]cyclobutan-1-ol]
5.00 to 6.00	COCC1(C(=O)N2OCC[C@H]2c2ccccc2)CC1 [Compound 76, (3S)-2-[1-(Methoxymethyl)cyclo-propanecarbonyl]-3-phenyl-1,2-oxazolidine]
